Patent US10883142B2, “Risk assessment for phenytoin-induced adverse drug reactions” (priority 2011, dated 2021)

Key:
[1] = normal therapeutic range, plasma; cited from earlier work
[2] = patients who received phenytoin; cited from earlier work
[3] = Phenytoin plasma concentration during ADR onset, HPLC analysis of patients' plasma; type: in vivo, human
Procedure: In this study, the phenytoin concentrations during ADR onset were determined from patients' plasma by HPLC analysis and estimated by non-linear pharmacokinetics formula: […]
Therapeutic levels of phenytoin are usually between 10-20 μg/ml. […] We also compared the phenytoin plasma levels of patients who carried CYP2Cs variants. […] Defective metabolism of phenytoin may increase the risk of drug accumulation, and leads to its risk to induce severe hypersensitivity reactions, such as SJS/TEN and DRESS.

phenytoin concentrations ([3]; 5 phenytoin-ADRs patients who carry CYP2C9*3 variant (of 23 analysed)): higher than 20 μg/ml
SMILES: O=C1NC(=O)C(c2ccccc2)(c2ccccc2)N1 [phenytoin]
therapeutic levels of phenytoin [1]: 10 to 20 µg/mL
patients who developed hypersensitivity reactions [2]: more than 19%
phenytoin plasma levels ([3]; patients with phenytoin-SJS/TEN, P=0.006 vs. tolerant control): 40 to 50 µg/mL
phenytoin plasma levels ([3]; tolerant control patients, after taking drug): 5 to 15 µg/mL
